Reference: patent US10457703B2, “Bile acid derivatives as FXR/TGR5 agonists and methods of use thereof” (ENANTA PHARMACEUTICALS, INC., priority 2015, dated 2019)

Target: human FXR (NR1H4) (Homo sapiens (Human), UniProt Q96RI1)
Assay: Human FXR (NR1H4) Assay (Gal4 promoter driven luciferase reporter, Indigo Bioscience kit);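 on Efficacy (%): 100% equals the efficacy of CDCA; efficacy normalized to CDCA set as 100%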
Format: cell-based
Conditions: for EC50: Human FXR (NR1H4) Assay, potency ranges; for Emax: read-out: Efficacy (%)
Excerpt: ASSAYS Human FXR (NR1H4) Assay
Determination of a ligand mediated Gal4 promoter driven transactivation to quantify ligand binding mediated activation of FXR. FXR Reporter Assay kit purchased from Indigo Bioscience (Catalogue number: IB00601) to determine the potency and efficacy of compound developed by Enanta that can induce FXR activation. The principle application of this reporter assay system is to quantify functional activity of human FXR. The assay utilizes non-human mammalian cells, CHO (Chinese hamster ovary) cells engineered to express human NR1H4 protein (referred to as FXR). Reporter cells also incorporate the cDNA encoding beetle luciferase which catalyzes the substrates and yields photon emission. Luminescence intensity of the reaction is quantified using a plate-reading luminometer, Envision. Reporter Cells include the luciferase reporter gene functionally linked to an FXR responsive promoter. Thus, quantifying changes in luciferase expression in the treated reporter cells provides a sensitive surrogate measure of the changes in FXR activity. […] The assay is according to the manufacturer's instructions. In brief, the assay was performed in white, 96 well plates using final volume of 100 uL containing cells with different doses of compounds. Retrieve Reporter Cells from −80° C. storage. Perform a rapid thaw of the frozen cells by transferring a 10 ml volume of 37° C. cell recovery medium into the tube of frozen cells. Recap the tube of Reporter Cells and immediately place it in a 37° C. water bath for 5-10 minutes. Retrieve the tube of Reporter Cell Suspension from the water bath. Sanitize the outside surface of the tube with a 70% alcohol swab, and then transfer it into the cell culture hood. Dispense 90 μl of cell suspension into each well of the 96-well Assay Plate. Transfer the plate into 37° C. incubator, allowing the cells adherent to the bottom of the well. Dilute compounds in Dilution Plate (DP), and administrate to cells at Assay Plate (AP). DMSO content of the samples was kept at 0.2%. Cells were incubated for additional 22 hours before luciferase activities were measured. Thirty minutes before intending to quantify FXR activity, remove Detection Substrate and Detection Buffer from the refrigerator and place them in a low-light area so that they may equilibrate to room temperature. Remove the plate's lid and discard all media contents by ejecting it into an appropriate waste container. Gently tap the inverted plate onto a clean absorbent paper towel to remove residual droplets. Cells will remain tightly adhered to well bottoms. Add 100 μl of luciferase detection reagent to each well of the assay plate. Allow the assay plate to rest at room temperature for at least 5 minutes following the addition of LDR. Set the instrument (Envision) to perform a single 5 second “plate shake” prior to reading the first assay well. Read time may be 0.5 second (500 mSec) per well.

Sequence of human FXR (NR1H4) (Q96RI1 whole entry, the tested form may be a part): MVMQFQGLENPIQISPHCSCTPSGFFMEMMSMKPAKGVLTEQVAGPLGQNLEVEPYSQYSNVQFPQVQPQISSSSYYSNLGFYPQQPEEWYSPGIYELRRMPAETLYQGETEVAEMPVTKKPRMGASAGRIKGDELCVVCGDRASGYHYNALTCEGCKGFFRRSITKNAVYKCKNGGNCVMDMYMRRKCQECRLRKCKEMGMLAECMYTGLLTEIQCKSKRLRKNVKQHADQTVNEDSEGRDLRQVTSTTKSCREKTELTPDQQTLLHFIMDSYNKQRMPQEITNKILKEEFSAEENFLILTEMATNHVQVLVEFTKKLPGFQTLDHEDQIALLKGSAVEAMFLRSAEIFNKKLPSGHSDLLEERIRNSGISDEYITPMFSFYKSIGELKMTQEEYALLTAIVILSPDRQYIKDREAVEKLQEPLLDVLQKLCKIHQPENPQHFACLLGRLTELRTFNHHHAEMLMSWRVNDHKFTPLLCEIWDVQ

Structure (SMILES) | EC50 [µM] | Emax [%]
CC[C@H]1[C@@H](O)[C@@H]2[C@H](CC[C@]3(C)[C@@H]([C@H](C)COC(=O)NS(=O)(=O)c4ccc(Oc5ccccc5)cc4)CC[C@@H]23)[C@@]2(C)CC[C@@H](O)C[C@@H]12 [Example 31] | 0.1 to 1 | 207
CC[C@H]1[C@@H](O)[C@@H]2[C@H](CC[C@]3(C)[C@@H]([C@H](C)COC(=O)NS(=O)(=O)c4ccc(-c5ccccc5)cc4)CC[C@@H]23)[C@@]2(C)CC[C@@H](O)C[C@@H]12 [Example 32] | < 0.1 | 164
CC[C@H]1[C@@H](O)[C@@H]2[C@H](CC[C@]3(C)[C@@H]([C@H](C)COC(=O)NS(=O)(=O)c4ccc(-c5ccc(OC(F)(F)F)cc5)cc4)CC[C@@H]23)[C@@]2(C)CC[C@@H](O)C[C@@H]12 [Example 33] | < 0.1 | 266
CC[C@H]1[C@@H](O)[C@@H]2[C@H](CC[C@]3(C)[C@@H]([C@H](C)COC(=O)NS(=O)(=O)c4ccc(-c5ccc(C(C)(C)C)cc5)cc4)CC[C@@H]23)[C@@]2(C)CC[C@@H](O)C[C@@H]12 [Example 34] | 0.1 to 1 | 186
CC[C@H]1[C@@H](O)[C@@H]2[C@H](CC[C@]3(C)[C@@H]([C@H](C)COC(=O)NS(=O)(=O)c4ccc(-c5ccncc5)cc4)CC[C@@H]23)[C@@]2(C)CC[C@@H](O)C[C@@H]12 [Example 35] | 0.1 to 1 | 152
CC[C@H]1[C@@H](O)[C@@H]2[C@H](CC[C@]3(C)[C@@H]([C@H](C)COC(=O)NS(=O)(=O)c4ccc(-c5ncccn5)cc4)CC[C@@H]23)[C@@]2(C)CC[C@@H](O)C[C@@H]12 [Example 36] | < 0.1 | 205
CC[C@H]1[C@@H](O)[C@@H]2[C@H](CC[C@]3(C)[C@@H]([C@H](C)COC(=O)NS(=O)(=O)c4ccc(-n5cccn5)cc4)CC[C@@H]23)[C@@]2(C)CC[C@@H](O)C[C@@H]12 [Example 37] | < 0.1 | 207
CC[C@H]1[C@@H](O)[C@@H]2[C@H](CC[C@]3(C)[C@@H]([C@H](C)COC(=O)NS(=O)(=O)c4cccc(O)c4)CC[C@@H]23)[C@@]2(C)CC[C@@H](O)C[C@@H]12 [Example 38] | 0.1 to 1 | 203
CC[C@H]1[C@@H](O)[C@@H]2[C@H](CC[C@]3(C)[C@@H]([C@H](C)COC(=O)NS(=O)(=O)c4ccc(O)cc4)CC[C@@H]23)[C@@]2(C)CC[C@@H](O)C[C@@H]12 [Example 39] | 0.1 to 1 | 182
CC[C@H]1[C@@H](O)[C@@H]2[C@H](CC[C@]3(C)[C@@H]([C@H](C)COC(=O)NS(=O)(=O)c4ccc(N5C6CCC5CC6)cc4)CC[C@@H]23)[C@@]2(C)CC[C@@H](O)C[C@@H]12 [Example 44-a] | < 0.1 | 182
CC[C@H]1[C@@H](O)[C@@H]2[C@H](CC[C@]3(C)[C@@H]([C@H](C)COC(=O)NS(=O)(=O)c4ccc(N5CCCC5)nc4)CC[C@@H]23)[C@@]2(C)CC[C@@H](O)C[C@@H]12 [Example 44-b] | < 0.1 | 216
CC[C@H]1[C@@H](O)[C@@H]2[C@H](CC[C@]3(C)[C@@H]([C@H](C)COC(=O)NS(=O)(=O)c4ccc(N5CCC5)nc4)CC[C@@H]23)[C@@]2(C)CC[C@@H](O)C[C@@H]12 [Example 44-c] | < 0.1 | 183
CC[C@H]1[C@@H](O)[C@@H]2[C@H](CC[C@]3(C)[C@@H]([C@H](C)COC(=O)NS(=O)(=O)c4ccc(-n5cnnn5)nc4)CC[C@@H]23)[C@@]2(C)CC[C@@H](O)C[C@@H]12 [Example 44-d] | 0.1 to 1 | 195
CC[C@H]1[C@@H](O)[C@@H]2[C@H](CC[C@]3(C)[C@@H]([C@H](C)COC(=O)NS(=O)(=O)c4ccc(-n5cnnn5)cc4)CC[C@@H]23)[C@@]2(C)CC[C@@H](O)C[C@@H]12 [Example 44-e] | 0.1 to 1 | 204
CC[C@H]1[C@@H](O)[C@@H]2[C@H](CC[C@]3(C)[C@@H]([C@H](C)COC(=O)NS(=O)(=O)c4ccc(-n5cncn5)cc4)CC[C@@H]23)[C@@]2(C)CC[C@@H](O)C[C@@H]12 [Example 44-f] | < 0.1 | 216
CC[C@H]1[C@@H](O)[C@@H]2[C@H](CC[C@]3(C)[C@@H]([C@H](C)COC(=O)NS(=O)(=O)c4ccc(-n5ccnn5)cc4)CC[C@@H]23)[C@@]2(C)CC[C@@H](O)C[C@@H]12 [Example 44-g] | < 0.1 | 209
CC[C@H]1[C@@H](O)[C@@H]2[C@H](CC[C@]3(C)[C@@H]([C@H](C)COC(=O)NS(=O)(=O)c4ccc(-n5ccnc5)cc4)CC[C@@H]23)[C@@]2(C)CC[C@@H](O)C[C@@H]12 [Example 44-h] | 0.1 to 1 | 194
CC[C@H]1[C@@H](O)[C@@H]2[C@H](CC[C@]3(C)[C@@H]([C@H](C)COC(=O)NS(=O)(=O)c4cccc(-c5ncco5)c4)CC[C@@H]23)[C@@]2(C)CC[C@@H](O)C[C@@H]12 [Example 44-i] | 0.1 to 1 | 210
CC[C@H]1[C@@H](O)[C@@H]2[C@H](CC[C@]3(C)[C@@H]([C@H](C)COC(=O)NS(=O)(=O)c4ccc(C(C)(C)C)s4)CC[C@@H]23)[C@@]2(C)CC[C@@H](O)C[C@@H]12 [Example 44-j] | < 0.1 | 170
CC[C@H]1[C@@H](O)[C@@H]2[C@H](CC[C@]3(C)[C@@H]([C@H](C)COC(=O)NS(=O)(=O)c4ccc(OC)cc4)CC[C@@H]23)[C@@]2(C)CC[C@@H](O)C[C@@H]12 [Example 44-k] | < 0.1 | 158
CC[C@H]1[C@@H](O)[C@@H]2[C@H](CC[C@]3(C)[C@@H]([C@H](C)COC(=O)NS(=O)(=O)c4ccc(-n5cncn5)nc4)CC[C@@H]23)[C@@]2(C)CC[C@@H](O)C[C@@H]12 [Example 44-l] | 0.1 to 1 | 165
CC[C@H]1[C@@H](O)[C@@H]2[C@H](CC[C@]3(C)[C@@H]([C@H](C)COC(=O)NS(=O)(=O)c4ccc(-n5ccnc5)nc4)CC[C@@H]23)[C@@]2(C)CC[C@@H](O)C[C@@H]12 [Example 44-m] | < 0.1 | 206
CC[C@H]1[C@@H](O)[C@@H]2[C@H](CC[C@]3(C)[C@@H]([C@H](C)COC(=O)NS(=O)(=O)c4ccc(-n5ccnn5)nc4)CC[C@@H]23)[C@@]2(C)CC[C@@H](O)C[C@@H]12 [Example 44-n] | 0.1 to 1 | 307
CC[C@H]1[C@@H](O)[C@@H]2[C@H](CC[C@]3(C)[C@@H]([C@H](C)COC(=O)NS(=O)(=O)c4ccc(-c5ncco5)nc4)CC[C@@H]23)[C@@]2(C)CC[C@@H](O)C[C@@H]12 [Example 44-o] | 0.1 to 1 | 292
CC[C@H]1[C@@H](O)[C@@H]2[C@H](CC[C@]3(C)[C@@H]([C@H](C)COC(=O)NS(=O)(=O)c4ccc(-c5ncco5)cc4)CC[C@@H]23)[C@@]2(C)CC[C@@H](O)C[C@@H]12 [Example 44-p] | < 0.1 | 218
CC[C@H]1[C@@H](O)[C@@H]2[C@H](CC[C@]3(C)[C@@H]([C@H](C)CCOC(=O)NS(=O)(=O)c4ccc(C(C)(C)C)cc4)CC[C@@H]23)[C@@]2(C)CC[C@@H](O)C[C@@H]12 [Example 45] | < 0.1 | 235
CC[C@H]1[C@@H](O)[C@@H]2[C@H](CC[C@]3(C)[C@@H]([C@H](C)CCOC(=O)NS(=O)(=O)c4ccc(F)cc4)CC[C@@H]23)[C@@]2(C)CC[C@@H](O)C[C@@H]12 [Example 46] | < 0.1 | 267
CC[C@H]1[C@@H](O)[C@@H]2[C@H](CC[C@]3(C)[C@@H]([C@H](C)CCOC(=O)NS(=O)(=O)C4CCCC4)CC[C@@H]23)[C@@]2(C)CC[C@@H](O)C[C@@H]12 [Example 47] | < 0.1 | 321
CC[C@H]1[C@@H](O)[C@@H]2[C@H](CC[C@]3(C)[C@@H]([C@H](C)CCOC(=O)NS(=O)(=O)C(C)(C)C)CC[C@@H]23)[C@@]2(C)CC[C@@H](O)C[C@@H]12 [Example 48] | < 0.1 | 282
